Assay: PN002/Part I: safety and tolerability
Format: in vivo, human
Method: All adverse events were mild or moderate in intensity. No serious adverse events were reported. […] Treatment periods were separated by a minimum 1-week washout period after administration of the 2 mg dose in Period 1 and by a minimum 2-week washout after subsequent treatment periods. Clinical safety was monitored throughout the study by adverse events, clinical laboratory tests, vital signs, ECGs, and ECG telemetry. *The study was planned to include 8 subjects. A ninth subject was randomized to replace a subject who was discontinued after Period 1 (because of a prolonged QTc interval after administration of the 2 mg dose, which was considered by the investigator to be unrelated to the study drug). […] The most frequently reported adverse events were relaxation, fuzzy head, headache, lightheadedness, dizziness, and mood alteration, all of which were transient and generally mild or moderate in severity.

CC(C)c1ccc(CC(=O)N[C@H](C)c2ccc(OCC(F)(F)F)cn2)cc1 [CX-8998]
8 (88.8) n (%): Nervous System Disorders (any dose)
3 (50.0) n (%): Headache (4 mg) | Headache (8 mg) | Lightheadedness (8 mg) | Respiratory, Thoracic and Mediastinal Disorders (8 mg) | Headache (12 mg) | Gastrointestinal Disorders (18 mg)
9 (100.0) n (%): At least 1 adverse event (any dose)
2 (22.2) n (%): Breathing difficult (any dose) | Dizziness upon standing (any dose) | Dry throat (any dose) | Feeling drunk (any dose) | Feeling hot (any dose) | Feeling of warmth (any dose) | Floating feeling (any dose) | Nasal congestion (any dose) | Paraesthesia of fingers (any dose)
4 (66.7) n (%): Dry mouth (8 mg) | Gastrointestinal Disorders (8 mg) | Nervous System Disorders (12 mg)
4 (44.4) n (%): Dry mouth (any dose) | Eye Disorders (any dose) | Lightheadedness (any dose) | Respiratory, Thoracic and Mediastinal Disorders (any dose)
2 (28.6) n (%): Headache (2 mg) | Nervous System Disorders (2 mg)
generally well tolerated: Tolerability (single doses up to 18 mg)
1 (16.7) n (%): Eye Disorders (4 mg) | Feeling of relaxation (4 mg) | Floating feeling (4 mg) | Fuzzy head (4 mg) | Lightheadedness (4 mg) | Nasal congestion (4 mg) | Respiratory, Thoracic and Mediastinal Disorders (4 mg) | Tiredness (4 mg) | Vision blurred (4 mg) | Breathing difficult (8 mg) | Dizziness upon standing (8 mg) | Dry throat (8 mg) | Floating feeling (8 mg) | Nasal congestion (8 mg) | Vision blurred (8 mg) | Visual disturbance (8 mg) | Dry mouth (12 mg) | Eye Disorders (12 mg) | Feeling drunk (12 mg) | Respiratory, Thoracic and Mediastinal Disorders (12 mg) | Vision blurred (12 mg) | Dizziness upon standing (18 mg) | Dry throat (18 mg) | Feeling drunk (18 mg) | Lightheadedness (18 mg) | Tiredness (18 mg)
5 (55.6) n (%): Feeling of relaxation (any dose)
7 (77.8) n (%): Headache (any dose)
2 (33.3) n (%): Dizziness (8 mg) | Eye Disorders (8 mg) | Feeling hot (8 mg) | Fuzzy head (8 mg) | Tiredness (8 mg) | Feeling of relaxation (12 mg) | Breathing difficult (18 mg) | Dizziness (18 mg) | Eye Disorders (18 mg) | Feeling hot (18 mg) | Feeling of relaxation (18 mg) | Feeling of warmth (18 mg) | Floating feeling (18 mg) | Fuzzy head (18 mg) | Headache (18 mg) | Paraesthesia of fingers (18 mg) | Respiratory, Thoracic and Mediastinal Disorders (18 mg) | Visual disturbance (18 mg)
6 (66.7) n (%): Gastrointestinal Disorders (any dose)
3 (33.3) n (%): Dizziness (any dose) | Fuzzy head (any dose) | Tiredness (any dose) | Vision blurred (any dose) | Visual disturbance (any dose)
6 (100) n (%): At least 1 adverse event (8 mg)
5 (71.4) n (%): At least 1 adverse event (2 mg)
1 (14.3) n (%): Feeling of relaxation (2 mg) | Floating feeling (2 mg) | Gastrointestinal Disorders (2 mg) | Respiratory, Thoracic and Mediastinal Disorders (2 mg)
0 n (%): Breathing difficult (2 mg) | Dizziness (2 mg) | Dizziness upon standing (2 mg) | Dry mouth (2 mg) | Dry throat (2 mg) | Eye Disorders (2 mg) | Feeling drunk (2 mg) | Feeling hot (2 mg) | Feeling of warmth (2 mg) | Fuzzy head (2 mg) | Lightheadedness (2 mg) | Nasal congestion (2 mg) | Paraesthesia of fingers (2 mg) | Tiredness (2 mg) | Vision blurred (2 mg) | Visual disturbance (2 mg) | Breathing difficult (4 mg) | Dizziness (4 mg) | Dizziness upon standing (4 mg) | Dry mouth (4 mg) | Dry throat (4 mg) | Feeling drunk (4 mg) | Feeling hot (4 mg) | Feeling of warmth (4 mg) | Paraesthesia of fingers (4 mg) | Visual disturbance (4 mg) | Feeling drunk (8 mg) | Feeling of relaxation (8 mg) | Feeling of warmth (8 mg) | Paraesthesia of fingers (8 mg) | Breathing difficult (12 mg) | Dizziness (12 mg) | Dizziness upon standing (12 mg) | Dry throat (12 mg) | Feeling hot (12 mg) | Feeling of warmth (12 mg) | Floating feeling (12 mg) | Fuzzy head (12 mg) | Lightheadedness (12 mg) | Nasal congestion (12 mg) | Paraesthesia of fingers (12 mg) | Tiredness (12 mg) | Visual disturbance (12 mg) | Dry mouth (18 mg) | Nasal congestion (18 mg) | Vision blurred (18 mg)
5 (83.3) n (%): At least 1 adverse event (4 mg) | Nervous System Disorders (4 mg) | At least 1 adverse event (12 mg)
6 (100.0) n (%): Nervous System Disorders (8 mg) | At least 1 adverse event (18 mg) | Nervous System Disorders (18 mg)

From patent US11311522B1 (Cavion, Inc., priority 2018, dated 2022)
